Laboratory results reported in patent publication US20260098046A1, “RIFABUTIN ANALOGS FOR THE TREATMENT OF DISEASE” (BIOVERSYS AG, priority 2022, published 2026).
Values after ≈ are worked out from the molar mass of the structure shown. Like-named read-outs stand apart in the source and are kept apart here.

Legend:
Format in all cases: cell-based
[1] = tested on: M. abscessus (ATCC 19977); assay: MIC by broth microdilution (CLSI) against M. abscessus; settings: Mycobacteroides abscessus
Experimental: (§1) MIC values were determined by broth microdilution method according to the CLSI guideline. Unless otherwise mentioned, MIC against A. baumannii was performed in RPMI medium supplemented with 10% FCS. MIC against M. abscessus was performed in Middlebrook 7H9 broth supplemented with Middlebrook ADC growth supplement (10%). All other MIC were performed in standard cation adjusted Mueller Hinton broth, supplemented with Middlebrook ADC growth supplement (5%) for the slow growing mycobacteria (M. xenopi, M. kansasii and M. avium).
(§2) The following procedure applies to all species tested, except for M. xenopi. From a fresh culture plate (from overnight to several days depending on the bacteria), cells were resuspended in 0.9% (w/v) saline solution and bacterial inoculum was prepared in the respective testing medium with 5×10^5 CFU/mL. For M. xenopi, the inoculum was prepared from a fresh liquid culture (7H9+ADC). The appropriate volumes of a 10 mg/mL compound solution were directly dispensed in the 96-well assay plate using a digital dispenser to create two-fold dilution series from 32 to 0.002 μg/mL final concentration for A. baumannii and S. aureus; from 16 to 0.016 μg/mL for M. abscessus and M. avium; and from 1 to 6×10^−5 μg/mL for M. kansasii and M. xenopi. 100 μL of bacterial suspension was finally added to the compounds. Plates were covered and incubated without shaking at 35° C. for 20 hours for A. baumanii and S. aureus; at 30° C. for 4 days for M. abscessus; and at 37° C. for 7 days (at least) for M. kansasii (covered with aluminum foil to avoid light exposure), M. avium and M. xenopi. Every experiment contained an antibiotic as quality control. MIC was determined visually as the lowest concentration of a compound that prevents visible growth of the bacteria.
(§3) The in vitro activity of compounds described herein was determined against S. aureus (UAMS-1625 strain), A. baumannii (HUMC1 strain), M. abscessus (ATCC 19977), M. kansasii (ATCC12478), M. avium (ATCC25291), and M. xenopi (ATCC19250).

[2] = tested on: S. aureus (UAMS-1625 strain); assay: MIC by broth microdilution (CLSI) against S. aureus; settings: Staphylococcus aureus, 20 h, read-out: In vitro activity (MIC) S. aureus
Experimental: as §1, §2, §3

[3] = tested on: A. baumannii (HUMC1 strain); assay: MIC by broth microdilution (CLSI) against A. baumannii; settings: Acinetobacter baumannii, RPMI medium supplemented with 10% FCS, 35° C. for 20 hours, read-out: In vitro activity (MIC) A. baumannii
Experimental: as §1, §2, §3

M. xenopi (ATCC19250) = assay: MIC by broth microdilution (CLSI) against M. xenopi; settings: Mycobacterium xenopi, 168 h, cation adjusted Mueller Hinton broth + ADC (5%), 37° C. for 7 days (at least), read-out: In vitro activity (MIC) M. xenopi
Experimental: as §1, §2, §3

M. kansasii (ATCC12478) = assay: MIC by broth microdilution (CLSI) against M. kansasii; settings: Mycobacterium kansasii, 168 h, cation adjusted Mueller Hinton broth + ADC (5%), 37° C. for 7 days (at least), read-out: In vitro activity (MIC) M. kansasii
Experimental: as §1, §2, §3

M. avium (ATCC25291) = assay: MIC by broth microdilution (CLSI) against M. avium; settings: Mycobacterium avium, 168 h, cation adjusted Mueller Hinton broth + ADC (5%), 37° C. for 7 days (at least), read-out: In vitro activity (MIC) M. avium
Experimental: as §1, §2, §3

[4] = ATCC19977, 96 h, ATCC 19977, Middlebrook 7H9 broth + ADC (10%), 30° C. for 4 days, read-out: In vitro activity (MIC) M. abscessus

| SMILES | MIC [1, 4] [µg/mL] | MIC [2] [µg/mL] | MIC [3] [µg/mL] | MIC (M. xenopi (ATCC19250)) [µg/mL] | MIC (M. kansasii (ATCC12478)) [µg/mL] | MIC (M. avium (ATCC25291)) [µg/mL] | MIC ([1]; ATCC19977, tested M. abscessus strains, read-out: MIC value on M. abscessus) [µg/mL] |
| --- | --- | --- | --- | --- | --- | --- | --- |
| CO[C@H]1/C=C/O[C@@]2(C)Oc3c(C)c(O)c4c(c3C2=O)C2=NC3(CCN(CC(C)C)CC3)NC2=C(NC(=O)/C(C)=C\C=C\[C@H](C)[C@H](O)[C@@H](C)[C@@H](O)[C@@H](C)[C@H](OC(=O)Cn2cc(CNS(=O)(=O)c3ccc(Cl)cc3)nn2)[C@@H]1C)C4=O [Compound 18] | 0.5 | 0.5 (≈ 0.447 µM) | 0.06 (≈ 0.0537 µM) |  |  |  |  |
| CO[C@H]1/C=C/O[C@@]2(C)Oc3c(C)c(O)c4c(c3C2=O)C2=NC3(CCN(CC(C)C)CC3)NC2=C(NC(=O)/C(C)=C\C=C\[C@H](C)[C@H](O)[C@@H](C)[C@@H](O)[C@@H](C)[C@H](OC(=O)Cn2cc(-c3ccc(-c5ccccc5)cc3)nn2)[C@@H]1C)C4=O [Compound 7] | 1 | 8 (≈ 7.5 µM) | 1 (≈ 0.938 µM) |  |  |  |  |
| CO[C@H]1/C=C/O[C@@]2(C)Oc3c(C)c(O)c4c(c3C2=O)C2=NC3(CCN(CC(C)C)CC3)NC2=C(NC(=O)/C(C)=C\C=C\[C@H](C)[C@H](O)[C@@H](C)[C@@H](O)[C@@H](C)[C@H](OC(=O)Cn2cc(-c3ccccc3)nn2)[C@@H]1C)C4=O [Compound 1] | 0.25 | 0.125 (≈ 0.126 µM) | 0.004 (≈ 0.00404 µM) | 0.016 | 0.002 | 0.03 |  |
| CO[C@H]1/C=C/O[C@@]2(C)Oc3c(C)c(O)c4c(c3C2=O)C2=NC3(CCN(CC(C)C)CC3)NC2=C(NC(=O)/C(C)=C\C=C\[C@H](C)[C@H](O)[C@@H](C)[C@@H](O)[C@@H](C)[C@H](OC(=O)Cn2cc(CNS(=O)(=O)c3ccccc3)nn2)[C@@H]1C)C4=O [Compound 16] | 0.5 | 0.125 (≈ 0.115 µM) | 0.008 (≈ 0.00739 µM) |  |  |  |  |
| CO[C@H]1/C=C/O[C@@]2(C)Oc3c(C)c(O)c4c(c3C2=O)C2=NC3(CCN(CC(C)C)CC3)NC2=C(NC(=O)/C(C)=C\C=C\[C@H](C)[C@H](O)[C@@H](C)[C@@H](O)[C@@H](C)[C@H](OC(=O)Cn2cc(C(C)(C)C)nn2)[C@@H]1C)C4=O [Compound 27] | 2 | 0.06 (≈ 0.0618 µM) | 0.004 (≈ 0.00412 µM) |  |  |  |  |
| CO[C@H]1/C=C/O[C@@]2(C)Oc3c(C)c(O)c4c(c3C2=O)C2=NC3(CCN(CC(C)C)CC3)NC2=C(NC(=O)/C(C)=C\C=C\[C@H](C)[C@H](O)[C@@H](C)[C@@H](O)[C@@H](C)[C@H](OC(=O)Cn2cc(-c3cccs3)nn2)[C@@H]1C)C4=O [Compound 11] | 1 | 0.03 (≈ 0.0301 µM) | 0.008 (≈ 0.00803 µM) |  |  |  |  |
| CO[C@H]1/C=C/O[C@@]2(C)Oc3c(C)c(O)c4c(c3C2=O)C2=NC3(CCN(CC(C)C)CC3)NC2=C(NC(=O)/C(C)=C\C=C\[C@H](C)[C@H](O)[C@@H](C)[C@@H](O)[C@@H](C)[C@H](OC(=O)Cn2cc(CN3CCS(=O)(=O)CC3)nn2)[C@@H]1C)C4=O [Compound 14] | 1 | 0.06 (≈ 0.0565 µM) | ≤ 0.002 |  |  |  |  |
| CO[C@H]1/C=C/O[C@@]2(C)Oc3c(C)c(O)c4c(c3C2=O)C2=NC3(CCN(CC(C)C)CC3)NC2=C(NC(=O)/C(C)=C\C=C\[C@H](C)[C@H](O)[C@@H](C)[C@@H](O)[C@@H](C)[C@H](OC(=O)Cn2cc(C(C)(C)N)nn2)[C@@H]1C)C4=O [Compound 13] | 1 | 0.125 (≈ 0.129 µM) | ≤ 0.002 |  |  |  |  |
| CO[C@H]1/C=C/O[C@@]2(C)Oc3c(C)c(O)c4c(c3C2=O)C2=NC3(CCN(CC(C)C)CC3)NC2=C(NC(=O)/C(C)=C\C=C\[C@H](C)[C@H](O)[C@@H](C)[C@@H](O)[C@@H](C)[C@H](OC(=O)Cn2cc(CCc3ccccc3)nn2)[C@@H]1C)C4=O [Compound 9] | 0.25 | 0.5 (≈ 0.491 µM) | 0.03 (≈ 0.0295 µM) | 0.03 | 0.002 | 0.06 |  |
| CO[C@H]1/C=C/O[C@@]2(C)Oc3c(C)c(O)c4c(c3C2=O)C2=NC3(CCN(CC(C)C)CC3)NC2=C(NC(=O)/C(C)=C\C=C\[C@H](C)[C@H](O)[C@@H](C)[C@@H](O)[C@@H](C)[C@H](OC(=O)Cn2cc(CN(C)Cc3ccccc3)nn2)[C@@H]1C)C4=O [Compound 12] | 0.25 | 0.125 (≈ 0.119 µM) | 0.008 (≈ 0.00764 µM) | 0.03 | 0.004 | 0.03 |  |
| CO[C@H]1/C=C/O[C@@]2(C)Oc3c(C)c(O)c4c(c3C2=O)C2=NC3(CCN(CC(C)C)CC3)NC2=C(NC(=O)/C(C)=C\C=C\[C@H](C)[C@H](O)[C@@H](C)[C@@H](O)[C@@H](C)[C@H](OC(=O)Cn2cc(CCCc3ccccc3)nn2)[C@@H]1C)C4=O [Compound 10] | 0.5 | 8 (≈ 7.75 µM) | 0.125 (≈ 0.121 µM) |  |  |  |  |
| CO[C@H]1/C=C/O[C@@]2(C)Oc3c(C)c(O)c4c(c3C2=O)C2=NC3(CCN(CC(C)C)CC3)NC2=C(NC(=O)/C(C)=C\C=C\[C@H](C)[C@H](O)[C@@H](C)[C@@H](O)[C@@H](C)[C@H](OC(=O)Cn2cc(-c3ccc(N)cc3)nn2)[C@@H]1C)C4=O [Compound 3] | 1 | 0.03 (≈ 0.0298 µM) | ≤ 0.002 |  |  |  |  |
| CO[C@H]1/C=C/O[C@@]2(C)Oc3c(C)c(O)c4c(O)c(c(/C=N/N5CCN(C)CC5)c(O)c4c3C2=O)NC(=O)/C(C)=C\C=C\[C@H](C)[C@H](O)[C@@H](C)[C@@H](O)[C@@H](C)[C@H](OC(C)=O)[C@@H]1C [Rifampicin, reference compound] |  |  |  |  |  |  | > 32 |
| CO[C@H]1/C=C/O[C@@]2(C)Oc3c(C)c(O)c4c(c3C2=O)C2=NC3(CCN(CC(C)C)CC3)NC2=C(NC(=O)/C(C)=C\C=C\[C@H](C)[C@H](O)[C@@H](C)[C@@H](O)[C@@H](C)[C@H](OC(=O)Cn2cc(CNS(C)(=O)=O)nn2)[C@@H]1C)C4=O [Compound 15] | 1 | 0.125 (≈ 0.122 µM) | ≤ 0.002 |  |  |  |  |
| CO[C@H]1/C=C/O[C@@]2(C)Oc3c(C)c(O)c4c(c3C2=O)C2=NC3(CCN(CC(C)C)CC3)NC2=C(NC(=O)/C(C)=C\C=C\[C@H](C)[C@H](O)[C@@H](C)[C@@H](O)[C@@H](C)[C@H](OC(=O)Cn2cc(C3CC3)nn2)[C@@H]1C)C4=O [Compound 25] | 4 | 0.03 (≈ 0.0314 µM) | ≤ 0.002 |  |  |  |  |
| CO[C@H]1/C=C/O[C@@]2(C)Oc3c(C)c(O)c4c(c3C2=O)C2=NC3(CCN(CC(C)C)CC3)NC2=C(NC(=O)/C(C)=C\C=C\[C@H](C)[C@H](O)[C@@H](C)[C@@H](O)[C@@H](C)[C@H](OC(=O)Cn2cc(CNS(=O)(=O)c3ccc(C)cc3)nn2)[C@@H]1C)C4=O [Compound 17] | 0.5 | 0.25 (≈ 0.228 µM) | 0.008 (≈ 0.00729 µM) |  |  |  |  |
| CCCc1cn(CC(=O)O[C@H]2[C@H](C)[C@H](O)[C@H](C)[C@@H](O)[C@@H](C)/C=C/C=C(/C)C(=O)NC3=C4NC5(CCN(CC(C)C)CC5)N=C4c4c(c(O)c(C)c5c4C(=O)[C@@](C)(O/C=C/[C@H](OC)[C@H]2C)O5)C3=O)nn1 [Compound 24] | 1 | 0.03 (≈ 0.0314 µM) | 0.004 (≈ 0.00418 µM) |  |  |  |  |
| CO[C@H]1/C=C/O[C@@]2(C)Oc3c(C)c(O)c4c(c3C2=O)C2=NC3(CCN(CC(C)C)CC3)NC2=C(NC(=O)/C(C)=C\C=C\[C@H](C)[C@H](O)[C@@H](C)[C@@H](O)[C@@H](C)[C@H](OC(=O)Cn2cc(CC3CCCCC3)nn2)[C@@H]1C)C4=O [Compound 28] | 0.5 | 0.5 (≈ 0.495 µM) | 0.03 (≈ 0.0297 µM) |  |  |  |  |
